Where two headings read alike, the source gives them in different places.

In general, IC50 refers to the concentration that gives 50% inhibition. What is called remaining activity is the share of the control activity or signal that is left under treatment.

In assay [1] the target is T1, bovine erythrocyte GPx1 (Bos taurus, UniProt P00435).
T1 construct: the isolated enzyme from bovine erythrocytes; purchased Sigma-Aldrich (Taufkirchen, Germany); host or cells: isolated from bovine erythrocytes
T1 sequence (P00435 1-205): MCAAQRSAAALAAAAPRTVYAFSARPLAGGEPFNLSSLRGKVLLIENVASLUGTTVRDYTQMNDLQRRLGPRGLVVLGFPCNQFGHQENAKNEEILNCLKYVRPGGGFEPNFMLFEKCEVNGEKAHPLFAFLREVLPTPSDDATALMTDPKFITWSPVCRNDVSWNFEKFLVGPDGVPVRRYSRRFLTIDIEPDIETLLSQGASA
Kind of assay: GPx1 enzyme activity assay (NADPH-coupled, t-BHP substrate). The arrangement: key to GPx1 inhibition: no impact (0); weak impact (+); strong impact (++). The format is biochemical. The note with it: for IC50: n ≥ 3; for GPx1 inhibition: summary grade. The text has this:
The inhibition of GPx1 by pentathiepins has already been reported by us previously. […] The resulting glutathione disulfide (GSSG) was reduced back to GSH by glutathione reductase (GR), thereby converting NADPH to NADP^+, which can be photometrically monitored at λ = 340 nm. The rate of NADPH consumption was used to quantify GPx1 enzyme activity. Dose-response graphs are presented in Figure 5a, and the corresponding IC50 values in Table 1. Relative IC50 describing the half-maximal inhibition of the enzyme were derived from the inflection point of the sigmoidal shaped graphs. Absolute IC50 was calculated via interpolation of the standard curve resulting in the concentration at which 50% of the GPx1 was inhibited.
The potential of the pentathiepins to inhibit the GPx1 was assessed with an enzymatic assay as described previously. It is based on the catalytic cycle of the enzyme coupled to an NADPH detection reaction. Here, a bovine erythrocyte GPx1 with a sequence similarity of 87% to the human homolog was used for reasons of affordability. The GPx1 was treated with either vehicle (solvent DMF) or the respective pentathiepin, and the reaction started by addition of tert-butylhydroperoxide (t-BHP). For the assay, all solutions were prepared with potassium phosphate buffer (50 mM, pH 7.4, EDTA 1.1 mM, Triton-X 0.01%), except for the inhibitors and t-BHP, which were diluted in DMF or water, respectively. First, 180 µL of a 0.125 U/mL GPx1 solution and 30 µL of a serial dilution of the putative inhibitor dissolved in DMF were added in triplicate to the wells of a UV-transparent 96-well plate. As a negative control, only DMF was appliedat the same dilution as the inhibitor solution.. All reagents including the GPx1 solution were pipetted. Then, 30 µL of a GSH solution (2.5 mM) and 30 µL of a GR/NADPH solution (2 U/mL; 2.0 mM) were added per well. The reaction was started by adding 30 µL of a t-BHP solution (5.0 mM). […] GPx1 activity was indirectly measured by monitoring the decrease of NADPH at λ = 340 nm for 30 min every 15 s at room temperature. The GPx1 activity of the treated samples was related to the solvent treated control and the relative activities analyzed in Prism 7 (GraphPad) via dose–response graphs and the calculation of the inflection point corresponding to the relative IC50 (half-maximal inhibitory concentration). The relative IC50 corresponds to the concentration at which half of the effect of the test compound is achieved. An absolute IC50, where 50% of the enzyme is inhibited, was calculated via interpolation of the sigmoidal graph.

Assay [2] has as its system PARP1 in HAP-1.KO.GPx1. Kind of assay: Western blot of cleaved PARP1. Type of assay: cell-based, human. Conditions: pentathiepins IC90, doxorubicin 0.5 µM, 24 h. The protocol:
(§1) In addition to general flow cytometric and microscopic analyses, Western blotting was performed to detect the apoptosis-relevant protein PARP1 (poly(ADP-ribose) polymerase 1) and its cleavage fragment (Figure 17 and Figures S29–S34). Full-length PARP1 (116 kDa) is involved in DNA repair, and a cleavage by caspases (fragment sizes 24 and 89 kDa) caused by caspase-3 and -7 is a hallmark of late apoptosis.
(§2) All detected specific bands were normalized to the total protein load per lane by the TGX stain-free gel system from Bio-Rad.
(§3) All Western blot analyses were performed with reagents, material, and devices purchased from Bio-Rad (Feldkirchen, Germany) if not stated otherwise. To obtain protein lysates, we seeded cells and treated them as described for the other methods. […] Cells were harvested by trypsinization and centrifugation for 5 min at 500× g. After a washing step with PBS, the cell pellet was resuspended in lysis buffer (Tris 50 mM (pH 7.4), 100 mM NaCl, 100 mM NaF, 5 mM EDTA, 0.2 mM Na3VO4, 0.1% Triton-X, and 1% protease inhibitor cocktail added immediately before use). Lysis was supported by incubating the samples for 10 min in an ultrasonic bath before centrifuging for 10 min at 18,000 × g and 4 °C. Protein quantification was performed via the Bradford method using ROTI®nanoquant reagent (Carl Roth GmbH, Karlsruhe, Germany) and bovine serum albumin as calibration standard. For electrophoretic separation, 15–40 µg of protein was loaded per well of a polyacrylamide gel (Mini- or Midi-Protean® TGX stain-free gel, Bio-Rad, Feldkirchen, Germany), and subsequent blotting was performed with Trans-Blot®Turbo™TransferPack Mini or Midi PVDF membranes from Bio-Rad (Feldkirchen, Germany). The membranes were blocked with a 10% non-fat milk powder solution in Tris-buffered saline (TBS; 2.42 g/L Tris, 8.48 g/L NaCl in water) plus 0.5% Tween-20 (TBST) for 1 h at RT. Incubation with primary antibodies took place over night at 4 °C in a 1:1000 dilution in TBST containing BSA (1%). The secondary antibodies conjugated to horse-radish peroxidase were diluted 1:10,000 in TBST and 1% BSA, and incubated for 4 h at RT. A detection step followed, applying Clarity™Western ECL substrate with subsequent imaging via the INTAS Advanced Fluorescence Imager. Between all incubation steps, the blots were washed three times for 10 min with TBST. The bands were quantified with the ImageLab software and normalized using the total protein quantification of the TGX stain-free gel system from Bio-Rad.
In general terms: Immunoblotting shows a protein as a band on a membrane.

Assay [3] relates to PARP1 in HAP-1. In words: Western blot of cleaved PARP1. Type of assay: cell-based, human. The note with it: pentathiepins IC90, doxorubicin 0.5 µM, 24 h. The procedure: as §1, §2, §3
[4] abbreviates: absolute IC50 (interpolation, 50% of GPx1 inhibited), read-out: Abs. IC50 (SD).
The mark [5] stands for this setting: relative IC50 (inflection point of dose-response graph), t-BHP substrate, read-out: Rel. IC50 (CI 95%).
Setting [6] is: residual GPx1 activity at highest tested concentration of 12.5 µM.

Take `CCOc1c2c(c3ccc(C(=O)N(CC)CC)cn13)SSSSS2` [Compound 4, 6-Ethoxy-N,N’-diethyl-[1,2,3,4,5]pentathiepino[6,7-a]indolizine-9-carboxamide]: the IC50 in assay [1] (setting [4]) came to 750 nM; in assay [1] (setting [5]), 600 nM. Besides, the remaining activity at 12.5 µM in assay [1] (setting [6]) amounted to 27.9%. The GPx1 inhibition entry in assay [1] is listed as “++”.

`CCOc1c2c(c3ccc(C(=O)N4CCN(C(=O)c5ccc(F)cc5)CC4)cn13)SSSSS2` [Compound 5, (6-Ethoxy-[1,2,3,4,5]pentathiepino[6,7-a]indolizin-9-yl)(4-(4-fluorobenzoyl)piperazinyl)methanone]: the IC50 was found to be 1170 nM in assay [1] (setting [4]) and 630 nM in assay [1] (setting [5]). Also, the remaining activity at 12.5 µM in assay [1] (setting [6]) was determined as 28.7%. For the same compound, the GPx1 inhibition result in assay [1] is “++”. Further, the “cleaved PARP1” value in assay [2] and in assay [3] was “trends for increased levels” each time.

On to `CCOc1c2c(c3cnc4[nH]c(-c5ccc(OC)cc5)cc4n13)SSSSS2` [Compound 1, 11-Ethoxy-2-(4-methoxyphenyl)-3H-[1,2,3,4,5]pentathiepino[6′,7′:3,4]pyrrolo[1,2-a]pyrrolo[2,3-e]pyrazine], for which the IC50 in assay [1] (setting [4]) came to 1490 nM; in assay [1] (setting [5]) it was 920 nM. The same compound had a remaining activity at 12.5 µM in assay [1] (setting [6]) of 16%. In assay [1] (residual GPx1 activity at highest tested concentration of 12.5 µM, 12.5 µM), the “Residual Activity (%)” value is 16.4%. For the same compound, the GPx1 inhibition result in assay [1] is listed as “++”.

Consider `CCOc1c2c(c3ccc(C(=O)N4CCOCC4)cn13)SSSSS2` [Compound 3, (6-Ethoxy-[1,2,3,4,5]pentathiepino[6,7-a]indolizin-9-yl)(morpholino)methanone], for which the figures for the IC50 in assay [1] (setting [4]) and in assay [1] (setting [5]) were 910 nM and 560 nM, respectively. This compound also displayed a remaining activity at 12.5 µM in assay [1] (setting [6]) of 29%. In assay [1], the GPx1 inhibition result is recorded as “++”. The “cleaved PARP1” value in assay [2] and in assay [3] was “trends for increased levels” each time.

For `CCOc1c2c(c3ccc(C(=O)N4CCN(S(=O)(=O)c5ccc(C)cc5)CC4)cn13)SSSSS2` [Compound 6, (6-Ethoxy-[1,2,3,4,5]pentathiepino[6,7-a]indolizin-9-yl)(4-tosylpiperazinyl)methanone], the half-maximal inhibitory concentration (IC50) in assay [1] (setting [4]) and in assay [1] (setting [5]) was > 12500 nM throughout. Also, the “decrease of the activity of the bovine GPx” value in assay [1] (at 12.5 µM) is ≤ 50%. The remaining activity at 12.5 µM in assay [1] (setting [6]) stood at 53.3%. In assay [1], this compound registered a GPx1 inhibition of 0. The “cleaved PARP1” value in assay [2] was “relevant and significant quantities of cleaved PARP1”; in assay [3], “relevant and significant quantities of cleaved PARP1”.

For the compound `CCOc1c2c(c3ccc(C(=O)N4CCCCC4)cn13)SSSSS2` [Compound 2, (6-Ethoxy-[1,2,3,4,5]pentathiepino[6,7-a]indolizin-9-yl)(piperidinyl)methanone], the IC50 turned out to be 3250 nM in assay [1] (setting [4]) and 2280 nM in assay [1] (setting [5]). Besides, the remaining activity at 12.5 µM in assay [1] (setting [6]) stood at 27.5%. In addition, the GPx1 inhibition result in assay [1] is “+”.

Values taken from PMC8305076, “Comprehensive Evaluation of Biological Effects of Pentathiepins on Various Human Cancer Cell Lines and Insights into Their Mode of Action” (International Journal of Molecular Sciences, 2021).
